IC50, Dose and Glucose data for 26 molecules are collected here from ChEMBL document CHEMBL1131045, “Indole-2-carboxamide inhibitors of human liver glycogen phosphorylase” (J Med Chem, 1998).

Experiment [1] concerns the target T1, Glycogen phosphorylase, liver form (Homo sapiens, UniProt P06737).
T1 sequence (P06737 whole entry): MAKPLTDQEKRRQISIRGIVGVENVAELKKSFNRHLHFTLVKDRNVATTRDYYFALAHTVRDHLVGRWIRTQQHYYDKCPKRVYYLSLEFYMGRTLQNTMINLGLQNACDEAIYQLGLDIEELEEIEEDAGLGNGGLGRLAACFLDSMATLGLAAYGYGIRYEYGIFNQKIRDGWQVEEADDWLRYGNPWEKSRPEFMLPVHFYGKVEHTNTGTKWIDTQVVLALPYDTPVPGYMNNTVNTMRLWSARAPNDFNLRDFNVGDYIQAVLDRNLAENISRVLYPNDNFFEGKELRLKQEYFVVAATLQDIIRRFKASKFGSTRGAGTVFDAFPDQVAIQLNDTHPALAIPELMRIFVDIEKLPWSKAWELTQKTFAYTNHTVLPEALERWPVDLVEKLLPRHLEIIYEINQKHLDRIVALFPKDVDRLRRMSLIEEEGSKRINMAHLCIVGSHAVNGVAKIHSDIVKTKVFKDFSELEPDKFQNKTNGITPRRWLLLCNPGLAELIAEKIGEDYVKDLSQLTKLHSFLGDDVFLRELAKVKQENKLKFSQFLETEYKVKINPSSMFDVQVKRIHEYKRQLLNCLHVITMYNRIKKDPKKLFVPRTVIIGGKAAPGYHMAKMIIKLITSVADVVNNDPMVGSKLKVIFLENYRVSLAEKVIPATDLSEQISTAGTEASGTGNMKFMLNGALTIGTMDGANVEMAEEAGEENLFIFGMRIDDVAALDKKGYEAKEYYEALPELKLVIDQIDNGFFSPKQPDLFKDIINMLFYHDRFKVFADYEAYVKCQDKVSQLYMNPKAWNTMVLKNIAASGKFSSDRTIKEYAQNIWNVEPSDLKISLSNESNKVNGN
In words: In vitro inhibitory activity against recombinant human liver glycogen phosphorylase a (rHLGPa) catalyzed release of phosphate from glucose-1-phosphate.

Experiment [2] deals with Mus musculus. The experiment in a line: Hypoglycemic responses resulting from oral dosing in diabetic ob/ob mice(inactive dose), po. It counts as functional.
The nature of experiment [3]: Inhibition of forskolin-stimulated glycogenolysis in SK-HEP-1 cells. It is filed as functional, cell-based. The note with it: Homo sapiens, SK-HEP1.
For experiment [4], the system named is Mus musculus. The experiment in a line: Hypoglycemic responses resulting from oral dosing in diabetic ob/ob mice(active dose), po. It counts as functional.
The species entered for experiment [5] is Mus musculus. The experiment in a line: Percent decrease in drug -treated plasma glucose concentration, relative to vehicle treated control diabetic ob/ob mice. It counts as functional.

Molecules are shown by their SMILES. Where “and” joins values, the source holds several entries; their conditions need not be identical. Equal values may be shown once.

As usually defined, the IC50 is the concentration needed to halve the response being measured. For `CN(C)C(=O)[C@@H](O)[C@H](Cc1ccccc1)NC(=O)c1cc2cc(Cl)ccc2[nH]1`, the IC50 in experiment [1] was 8.7 µM. This molecule also had a Dose in the experiment with Mus musculus [2] of 50 mg/kg.
Take `COC(=O)[C@H](O)[C@H](Cc1ccccc1)NC(=O)c1cc2cc(Cl)ccc2[nH]1`: the IC50 in experiment [1] came out at 0.21 µM; in experiment [3] it was 13 µM. The molecule further displayed a Dose in the experiment on Mus musculus [2] of 50 mg/kg.
Turning to `CN(C)C(=O)[C@H](Cc1ccccc1)NC(=O)c1cc2cc(F)ccc2[nH]1`, the IC50 is 0.43 µM in experiment [1] and 2.3 µM in experiment [3]. The same molecule registered a Dose in the experiment with Mus musculus [2] of 50 mg/kg.
On to `CN(C)C(=O)[C@H](O)[C@H](Cc1ccccc1)NC(=O)c1cc2cc(F)ccc2[nH]1`, for which the IC50 in experiment [1] stood at 0.17 µM; in experiment [3], 6.2 µM. Further, the Dose in the experiment on Mus musculus [4] came out at 25 mg/kg; in the experiment with Mus musculus [2], 10 mg/kg. In addition, in the experiment filed under Mus musculus [5], the Glucose was 33%.
Turning to `O=C(N[C@@H](Cc1ccccc1)[C@@H](O)CO)c1cc2cc(Cl)ccc2[nH]1`, the IC50 in experiment [1] stood at 6.8 µM.
For `CN(C)C(=O)[C@H](Cc1ccccc1)NC(=O)c1cc2ccccc2[nH]1`, the IC50 in experiment [1] was 0.4 µM; in experiment [3], 7.8 µM. Besides, the Dose amounted to 50 mg/kg with Mus musculus [4] and 25 mg/kg with Mus musculus [2]. The Glucose in the experiment filed under Mus musculus [5] is listed as 40%.
On to `CN(C)C(=O)[C@H](O)[C@H](Cc1ccccc1)NC(=O)c1cc2ccccc2[nH]1`, for which the figures for the half-maximal inhibitory concentration (IC50) in experiment [1] and in experiment [3] were 0.44 µM and more than 30 µM, respectively.
Turning to `CN(C)C(=O)[C@H](O)[C@H](CC1CCCCC1)NC(=O)c1cc2cc(Cl)ccc2[nH]1`, the IC50 in experiment [1] turned out to be 6.5 µM.
Consider `CNC(=O)[C@H](Cc1ccccc1)NC(=O)c1cc2cc(Cl)ccc2[nH]1`, for which the IC50 in experiment [1] was 0.11 µM; in experiment [3], 5.2 µM. Besides, the values for the Dose in the experiment on Mus musculus [4] and with Mus musculus [2] were 50 mg/kg and 25 mg/kg, respectively. The molecule also registered a Glucose in the experiment listed under Mus musculus [5] of 49%.
As to `CN(C)C(=O)[C@H](O)[C@H](Cc1ccccc1)NC(=O)c1cc2cc(Cl)ccc2[nH]1`, the values for the IC50 in experiment [1] and in experiment [3] were 0.11 µM and 1.5 µM, respectively. In addition, the Dose with Mus musculus [4] was 50 mg/kg and 25 mg/kg; in the experiment with Mus musculus [2], 15 mg/kg. Further, in the experiment filed under Mus musculus [5], the Glucose was 40% and 32%.
For the molecule `COc1ccc2[nH]c(C(=O)N[C@@H](Cc3ccccc3)C(=O)N(C)C)cc2c1`, in experiment [1], the IC50 came to 4.7 µM.
Regarding `O=C(N[C@@H](Cc1ccccc1)[C@@H](O)C(=O)O)c1cc2cc(Cl)ccc2[nH]1`, the IC50 is 0.33 µM in experiment [1] and more than 30 µM in experiment [3].
Turning to `O=C(N[C@@H](Cc1ccccc1)C(=O)N1CCC(O)CC1)c1cc2cc(Cl)ccc2[nH]1`, the results for the IC50 in experiment [1] and in experiment [3] were 0.26 µM and 5.1 µM, respectively. Moreover, the results for the Dose in the experiment on Mus musculus [4] and in the experiment on Mus musculus [2] were 25 mg/kg and 10 mg/kg, respectively. The molecule also displayed a Glucose in the experiment filed under Mus musculus [5] of 36%.
Take `CN(C)C(=O)[C@H](Cc1ccccc1)NC(=O)c1cc2cc(Cl)ccc2[nH]1`: the IC50 stood at 0.082 µM in experiment [1] and 1.9 µM in experiment [3].
In the case of `CNC(=O)[C@@H](Cc1ccccc1)NC(=O)c1cc2cc(Cl)ccc2[nH]1`, the IC50 in experiment [1] was found to be 0.22 µM; in experiment [3] it was 12 µM. In addition, the values for the Dose in the experiment on Mus musculus [4] and with Mus musculus [2] were 50 mg/kg and 25 mg/kg, respectively. Moreover, the Glucose in the experiment filed under Mus musculus [5] was determined as 39%.
Take `COC(=O)[C@H](Cc1ccccc1)NC(=O)c1cc2cc(Cl)ccc2[nH]1`: the results for the IC50 in experiment [1] and in experiment [3] were 0.14 µM and more than 30 µM, respectively. This molecule also displayed a Dose in the experiment on Mus musculus [2] of 50 mg/kg.
As to `O=C(N[C@@H](Cc1ccccc1)C(=O)O)c1cc2cc(Cl)ccc2[nH]1`, the IC50 in experiment [1] is 1.7 µM; in experiment [3], more than 30 µM.
As to `O=C(N[C@@H](Cc1ccc(F)cc1)C(=O)N1CCC(O)CC1)c1cc2cc(Cl)ccc2[nH]1`, the Dose with Mus musculus [2] came out at 5 mg/kg. For the same molecule, the Glucose in the experiment listed under Mus musculus [5] was 44% and 45% and 26% and 24%. In experiment [3], this molecule yielded an IC50 of 1.9 µM.
Consider `NC(=O)[C@H](O)[C@H](Cc1ccccc1)NC(=O)c1cc2cc(Cl)ccc2[nH]1`, for which the IC50 in experiment [1] is 1.7 µM.
Take `CN(C)C(=O)[C@H](Cc1ccccc1)NC(=O)c1cc2cc(Br)ccc2[nH]1`: the IC50 in experiment [1] amounted to 0.11 µM; in experiment [3] it was 1.4 µM. The Dose with Mus musculus [2] came to 50 mg/kg.
Consider `O=C(N[C@H](CO)Cc1ccccc1)c1cc2cc(Cl)ccc2[nH]1`, for which, in experiment [1], the IC50 was more than 10 µM.
For `CN(C)C(=O)[C@H](O)[C@H](Cc1ccccc1)NC(=O)c1cc2cc(Br)ccc2[nH]1`, the 50% inhibitory concentration (IC50) was determined as 0.097 µM in experiment [1] and 3.3 µM in experiment [3]. In addition, in the experiment on Mus musculus [2], the Dose stood at 50 mg/kg.
Take `CN(C)C(=O)[C@H](O)[C@@H](Cc1ccccc1)NC(=O)c1cc2cc(Cl)ccc2[nH]1`: in experiment [1], the IC50 turned out to be 1.7 µM.
Regarding `CNC(=O)[C@H](O)[C@H](Cc1ccccc1)NC(=O)c1cc2cc(Cl)ccc2[nH]1`, the IC50 in experiment [1] is 0.68 µM; in experiment [3], more than 30 µM.
`CN(C)C(=O)[C@@H](Cc1ccccc1)NC(=O)c1cc2cc(Cl)ccc2[nH]1`: the half-maximal inhibitory concentration (IC50) in experiment [1] turned out to be 0.26 µM; in experiment [3] it was 12 µM.
As to `CN(C)C(=O)[C@@H](O)[C@@H](Cc1ccccc1)NC(=O)c1cc2cc(Cl)ccc2[nH]1`, the IC50 in experiment [1] came to 1.8 µM.
